Holding throughout (assay type): biochemical, bovine
One assay has as its target T1, PDE2 (Bos taurus, UniProt P14099).
T1 construct: PDE2 was prepared from bovine endothelial cells by the same methods; endogenous in cells; host or cells: bovine endothelial cells
T1 sequence (P14099 1-921): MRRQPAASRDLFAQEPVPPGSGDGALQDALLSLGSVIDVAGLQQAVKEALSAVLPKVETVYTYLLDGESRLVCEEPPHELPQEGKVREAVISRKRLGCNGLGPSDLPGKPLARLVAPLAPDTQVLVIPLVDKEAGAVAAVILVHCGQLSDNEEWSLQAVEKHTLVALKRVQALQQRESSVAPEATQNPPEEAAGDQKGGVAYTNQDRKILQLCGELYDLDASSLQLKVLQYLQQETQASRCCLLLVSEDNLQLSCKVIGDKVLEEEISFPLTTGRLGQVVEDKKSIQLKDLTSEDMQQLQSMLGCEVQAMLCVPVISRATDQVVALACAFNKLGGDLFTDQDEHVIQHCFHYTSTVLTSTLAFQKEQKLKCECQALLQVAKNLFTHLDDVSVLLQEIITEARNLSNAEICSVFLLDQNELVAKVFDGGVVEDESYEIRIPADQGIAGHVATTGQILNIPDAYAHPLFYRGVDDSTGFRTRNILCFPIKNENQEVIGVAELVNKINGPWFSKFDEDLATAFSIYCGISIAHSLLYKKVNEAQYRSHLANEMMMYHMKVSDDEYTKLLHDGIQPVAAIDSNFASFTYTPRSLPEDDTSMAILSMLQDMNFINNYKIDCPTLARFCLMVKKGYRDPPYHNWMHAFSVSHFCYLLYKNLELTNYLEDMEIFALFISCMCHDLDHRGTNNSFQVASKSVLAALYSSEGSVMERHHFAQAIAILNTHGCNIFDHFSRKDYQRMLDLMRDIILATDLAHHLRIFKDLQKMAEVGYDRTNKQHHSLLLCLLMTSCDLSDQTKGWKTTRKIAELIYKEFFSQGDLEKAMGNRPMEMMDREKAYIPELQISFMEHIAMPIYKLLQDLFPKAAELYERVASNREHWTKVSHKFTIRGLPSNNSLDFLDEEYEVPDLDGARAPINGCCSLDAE
Kind of assay: Inhibition of PDE2, radioenzymatic phosphodiesterase assay. Particulars: for inhibition at 10 µM: read-out: PDE2 percentage inhibition at 10 μM.

The next assay deals with PDE1. The assay can be described thus: Selectivity: inhibition of PDE1, radioenzymatic phosphodiesterase assay. Particulars: 10 μM test compound; vascular smooth muscle. On the procedure:
(§1) A 3 g segment of bovine aortic media cut into pieces with scissors was homogenized with an ultra-turrax then a potter glass/glass homogenizer in 7 volumes by weight of buffer A containing a protease inhibitor cocktail (20 mM Tris-HCl, 0.25 M saccharose, 2 mM magnesium acetate, 1 mM dithiothreitol, 5 mM EGTA, 2000 U/ml aprotinin, 10 mg/l leupeptin and 10 mg/l soya trypsic inhibitor). The homogenizate was centrifuged at 105,000 g for 1 hour. The supernatant was loaded on a DEAE-Sephacel column (15 x 1.6 cm) pre-equilibrated with buffer B (buffer A without the saccharose, EGTA and protease inhibitors). The column was washed until there was no detectable absorption at 280 nm, then eluted with a linear gradient of NaCl (0-0.5 M) in buffer B. 3-ml fractions were collected and enzyme activity was determined under the conditions described hereinbelow to localize the different enzymes PDE1, PDE3, PDE4 and PDE5 which were aliquoted and frozen at −80° C. (Lugnier et al., Biochem. Phamacol., 1986, 35: 1746-1751). PDE2 was prepared from bovine endothelial cells by the same methods (Lugnier and Schini, Biochem. Pharmacol., 1990, 39: 75-84).
(§2) Cyclic nucleotide phosphodiesterase activity was determined by a radioenzymatic method using tritium-labelled cyclic GMP or AMP (1 μM) as substrate (Lugnier et al., 1986). ^3H-labelled adenosine or guanosine monophosphate formed by hydrolysis of the radiolabelled cyclic nucleotide was then converted to ^3H-labelled adenosine or guanosine in a second reaction with […] in excess. The nucleoside formed was separated from the nucleotides by anion exchange chromatography. Nucleoside radioactivity was determined by liquid scintillation counting. […]
(§3) The activity of the compounds was evaluated on other phosphodiesterase isoforms, particularly basal state or calmodulin-activated PDEl from vascular smooth muscle, PDE3, PDE4 and PDE5 from vascular smooth muscle.
(§4) The results obtained are presented in Tables 1 and 2 hereinbelow and are expressed as the percentage inhibition of enzymatic activity produced by […] of the test compound.

Another assay addresses T2, PDE3 (Bos taurus, UniProt A0A3Q1M1E8).
T2 sequence (A0A3Q1M1E8 1-1126): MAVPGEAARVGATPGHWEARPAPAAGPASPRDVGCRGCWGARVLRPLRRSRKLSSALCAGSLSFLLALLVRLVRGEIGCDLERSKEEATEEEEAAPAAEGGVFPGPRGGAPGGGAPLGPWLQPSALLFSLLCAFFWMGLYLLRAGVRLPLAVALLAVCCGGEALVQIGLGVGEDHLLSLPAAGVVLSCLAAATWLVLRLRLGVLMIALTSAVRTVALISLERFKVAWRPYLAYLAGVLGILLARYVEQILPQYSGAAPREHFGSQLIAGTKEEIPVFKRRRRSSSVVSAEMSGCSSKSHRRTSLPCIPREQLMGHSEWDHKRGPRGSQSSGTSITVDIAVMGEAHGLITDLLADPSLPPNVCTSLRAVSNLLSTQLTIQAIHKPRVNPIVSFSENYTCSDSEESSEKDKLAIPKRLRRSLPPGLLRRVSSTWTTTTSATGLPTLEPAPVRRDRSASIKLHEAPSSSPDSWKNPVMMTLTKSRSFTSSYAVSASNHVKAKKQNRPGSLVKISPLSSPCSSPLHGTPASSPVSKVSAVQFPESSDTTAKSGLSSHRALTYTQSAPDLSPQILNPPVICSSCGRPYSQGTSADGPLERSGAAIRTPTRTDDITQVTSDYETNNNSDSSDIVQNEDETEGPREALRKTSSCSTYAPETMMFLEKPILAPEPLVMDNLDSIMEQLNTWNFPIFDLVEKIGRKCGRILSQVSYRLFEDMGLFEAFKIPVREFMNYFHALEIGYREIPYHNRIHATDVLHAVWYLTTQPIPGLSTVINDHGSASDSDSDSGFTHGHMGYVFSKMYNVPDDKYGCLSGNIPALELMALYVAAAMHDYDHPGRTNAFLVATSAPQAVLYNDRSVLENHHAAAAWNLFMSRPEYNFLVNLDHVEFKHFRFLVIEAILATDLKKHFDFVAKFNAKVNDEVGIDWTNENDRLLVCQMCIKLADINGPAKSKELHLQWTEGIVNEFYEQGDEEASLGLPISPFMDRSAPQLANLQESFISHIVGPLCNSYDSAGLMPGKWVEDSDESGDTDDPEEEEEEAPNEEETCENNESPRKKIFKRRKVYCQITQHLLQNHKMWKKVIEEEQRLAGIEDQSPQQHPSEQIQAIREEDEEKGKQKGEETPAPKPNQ
The assay can be described thus: Selectivity: inhibition of PDE3, radioenzymatic phosphodiesterase assay. Particulars: 10 μM test compound; vascular smooth muscle; read-out: PDE3 percentage inhibition at 10 μM. On the procedure: as §1, §2, §3, §4

The next assay relates to PDE4. Kind of assay: Selectivity: inhibition of PDE4, radioenzymatic phosphodiesterase assay. To be noted: vascular smooth muscle; for PDE4 percentage inhibition at 10 μM: 10 μM test compound; for IC50: cells without % sign. On the procedure: as §1
(§5) Cyclic nucleotide phosphodiesterase activity was determined by a radioenzymatic method using tritium-labelled cyclic GMP or AMP (1 μM) as substrate (Lugnier et al., 1986). ^3H-labelled adenosine or guanosine monophosphate formed by hydrolysis of the radiolabelled cyclic nucleotide was then converted to ^3H-labelled adenosine or guanosine in a second reaction with […] in excess. The nucleoside formed was separated from the nucleotides by anion exchange chromatography. Nucleoside radioactivity was determined by liquid scintillation counting. Enzymatic incubations were carried out under conditions allowing no more than 15% hydrolysis of the substrate; each point was performed in duplicate.
as §3, §4

The next assay has as its target T3, PDE5 (Bos taurus, UniProt Q28156).
T3 construct: localize the different enzymes PDE1, PDE3, PDE4 and PDE5 which were aliquoted and frozen; from tissue; host or cells: bovine aortic media (vascular smooth muscle)
Kind of assay: Selectivity: inhibition of PDE5, radioenzymatic phosphodiesterase assay. To be noted: 10 μM test compound; vascular smooth muscle; read-out: PDE5 percentage inhibition at 10 μM. On the procedure: as §1, §5, §3, §4

Each structure is given as a SMILES string.

Regarding `COc1cc2c(cc1OC)N(C)C(=O)CN=C2c1cccc(C(F)(F)F)c1` [Compound 4p, 7,8-dimethoxy-1-methyl-[5-(3-trifluoromethyl)phenyl]-1,3-dihydro-2H-1,4-benzodiazepin-2-one], on PDE2, the IC50 worked out at 1800 nM. Further, the “PDE1 percentage inhibition at 10 μM” value with PDE1 came out at 25%. Also, the figures for the inhibition at 10 µM at PDE3 and at PDE5 were 58% and 26%, respectively. Also, the “PDE4 percentage inhibition at 10 μM” value with PDE4 is recorded as 19%.
The compound `COc1cc2c(c(Br)c1OC)C(c1cccc(C(N)=O)c1)=NCC(=O)N2C` [Compound 5b, 3-(6-bromo-7,8-dimethoxy-1-methyl-2-oxo-2,3-dihydro-1H-1,4-benzodiazepin-5-yl)benzamide] registered a 50% inhibitory concentration (IC50) against PDE2 of 2100 nM. Besides, on PDE5, the inhibition at 10 µM was 21.6%.
The compound `COc1cc2c(cc1OC)N(C)C(=O)CN=C2c1cccc(C#CCCCC#N)c1` [Compound 6d, 6-[3-(7,8-dimethoxy-1-methyl-2-oxo-2,3-dihydro-1H-1,4-benzodiazepin-5-yl)phenyl]hex-5-ynenitrile] displayed a 50% inhibitory concentration (IC50) against PDE2 of 2400 nM. Further, the “PDE4 percentage inhibition at 10 μM” value with PDE4 amounted to 55.7%.
Take `COc1cc2c(cc1OC)N(C)C(=O)CN=C2c1cccc(-c2ccc(Cl)cc2)c1` [Compound 6j, 5-(4′-chloro-1,1′-biphenyl-3-yl)-7,8-dimethoxy-1-methyl-1,3-dihydro-2H-1,4-benzodiazepin-2-one]: the half-maximal inhibitory concentration (IC50) is 710 nM at PDE2 and 2.8 µM against PDE4.
Take `COc1cc2c(cc1OC)N(C)C(=O)CN=C2c1cccc(-c2ccc(C#N)cc2)c1` [Compound 6m, 3′-(7,8-dimethoxy-1-methyl-2-oxo-2,3-dihydro-1H-1,4-benzodiazepin-5-yl)-1,1′-biphenyl-4-carbonitrile]: the inhibition at 10 µM on PDE2 amounted to 82.3%. Also, the “PDE4 percentage inhibition at 10 μM” value in the assay on PDE4 was 37.3%.
Turning to `COc1cc2c(cc1OC)N(C)C(=O)CN=C2c1cccc(-c2ccc(C(N)=O)cc2)c1` [Compound 6n, 3′-(7,8-dimethoxy-1-methyl-2-oxo-2,3-dihydro-1H-1,4-benzodiazepin-5-yl)-1,1′-biphenyl-4-carboxamide], the inhibition at 10 µM at PDE2 came to 84.6%. For the same compound, in the assay on PDE4, the “PDE4 percentage inhibition at 10 μM” value worked out at 58.7%.
Turning to `CCN1C(=O)C(Cc2ccc(Cl)c(Cl)c2)N=C(c2ccccc2)c2cc(OC)c(OC)cc21` (stereo not shown) [Compound 7a, 3-(3,4-dichlorobenzyl)-1-ethyl-7,8-dimethoxy-5-phenyl-1,3-dihydro-2H-1,4-benzodiazepin-2-one], the IC50 was 3130 nM against PDE2 and 6.52 µM against PDE4.
As for `COc1cc2c(cc1OC)N(C)C(=O)CN=C2c1cccnc1` [Compound 17b, 7,8-dimethoxy-1-methyl-5-(3-pyridyl)-1,3-dihydro-1,4-benzodiazepin-2-one], on PDE2, the half-maximal inhibitory concentration (IC50) is 1500 nM. For the same compound, in the assay on PDE1, the “PDE1 percentage inhibition at 10 μM” value was 10%. Besides, the figures for the inhibition at 10 µM on PDE3 and at PDE5 were 36% and 14%, respectively. In the assay on PDE4, the “PDE4 percentage inhibition at 10 μM” value was determined as 8%.

Usually IC50 stands for the concentration at which inhibition is half-maximal. A lower IC50 goes with inhibition by little substance. Broadly, the inhibition is the percentage by which the read-out fell short of the control.
